{"source": "patent EP0447812B1", "about": "“Use of a dihydropyridine to improve the inner ear blood circulation” (FUJISAWA PHARMACEUTICAL CO., LTD., priority 1990, dated 1991)", "key": {"[1]": {"test_system": "Male Wistar rats", "assay": "Test 1: Rose Bengal/green light photo-illumination of the cochlear lateral wall, compound action potential (CAP) recorded by electrocochleography", "type": "in vivo", "conditions": "0.3 mg/kg injected intravenously 10 minutes prior to photo-illumination; 6 animals; vehicle only 12.0 min.", "procedure": "Male Wistar rats (body weights 240 - 260 g) were anesthetized with pentobarbital. After tracheotomy, the animals were artificially ventilated with a Harvard 683 respirator. A solution of Rose Bengal (RB) in saline (10 mg/ml) was infused into the femoral vein at a speed of 24 µmoles/kg per hour. After initiation of Rose Bengal infusion, the left middle ear was opened and, for electrocochleography, the round window lead electrode was fixed in position. Thus, after incision of the skin and muscle of the neck region, the tympanic cavity was drilled with a miniature drill and a silver ball electrode was placed on the round window membrane for use as an active electrode. An indifferent electrode was placed in the middle of the back of the head. Thirty minutes after initiation of Rose Bengal infusion, the lateral wall of the cochlea was irradiated with a green light (540 nm) conducted from a light source (L-3306-01A, Hamamatsu Photonics) through an optical fiber. Using a manipulator, the free end of the optical fiber was fixed about 5 mm away from the lateral wall of the cochlea. In this arrangement, the compound action potential (CAP) was recorded at 1-minute intervals. The electrocochleogram was recorded with Nihon Kohden Neuropack II by averaging 128 clicks of 8 kHz at a sound pressure level of 100 dB. […]"}, "[2]": {"test_system": "Rats", "assay": "Test 2: Rose Bengal/green light photoillumination of the oval window, nystagmus test and swimming test for imbalance 24 hours later", "type": "in vivo", "conditions": "0.03 mg/kg intravenously at the beginning of photoillumination, 12 animals, dosage 0: 100 %", "procedure": "Rats were anesthetized with pentobarbital, and with the body temperature maintained at 37°C with a heating pad, an aqueous solution of Rose Bengal was continuously infused into the femoral vein. The […] was then opened and the tympanic membrane, incus and malleus were removed taking care not to impair the inner ear.\nUsing a Hamamatsu Photonic xenon lamp, the oval window was irradiated with a green light of 540 nm via an optical fiber. Using a manipulator, the end of the fiber was fixed about 3 mm from the lateral wall of the cochlea.\nPhotoillumination was started 20 minutes after the beginning of Rose Bengal infusion and a solution of the test compound in polyethylene glycol (400)-water (1:1, v/v) was intravenously administered at the beginning of photoillumination. After 40 minutes of irradiation, both the photoillumination and Rose Bengal infusion were terminated, the wound was sutured, and the animal was allowed to regain consciousness. At 24 hours after termination of photoillumination, a nystagmus test and a swimming test for imbalance were performed."}}}
{"smiles": "COC(=O)C1=C(C#N)NC(C)=C(C(=O)OC(C)C)C1c1cccc([N+](=O)[O-])c1", "note": "(stereo not drawn) [dihydropyridine compound A, Isopropyl 6-cyano-5-methoxycarbonyl-2-methyl-4-(3-nitrophenyl)-1,4-dihydropyridine-3-carboxylate]", "values": [{"measurement": "Action potential disappearance time", "setting": "[1]", "result": 14.5, "unit": "min"}, {"measurement": "Incidence (%) imbalance", "setting": "[2]; swimming test 24 hours after termination of photoillumination", "result": 58.3, "unit": "%"}, {"measurement": "Incidence (%) Nystagmus", "setting": "[2]; tested 24 hours after termination of photoillumination", "result": 58.3, "unit": "%"}]}
